Patent US20200024278A1, “COMPOSITION COMPRISING ANTIBIOTIC COMPOUND AND AN HETEROCYCLIC COMPOUND AND THEIR USE IN PREVENTING OR TREATING BACTERIAL INFECTIONS” (MUTABILIS, priority 2016, published 2020)
Like-named read-outs stand apart in the source and are kept apart here.

How the values were obtained:
ABA UFR159 = assay: MIC, broth microdilution (CLSI), substance alone or ATB combined with compound at 4 or 8 μg/mL; format: cell-based, A. baumannii; details: substance alone
Summary of the method: (§1)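 Antibiotic MICs were determined in presence of fixed compound at 4 or 8 μg/mL, and compound MICs alone, by visual growth inhibition. Inoculum 5·10^5 CFU/mL in ca-MHB, incubated 35 °C for 16-20 h per CLSI-M7-A7. Glucose-6-phosphate (25 μg/ml) added when fosfomycin was tested.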

ABA UFR156 = assay: as above; format: cell-based, A. baumannii; details: substance alone
Summary of the method: as §1

ABA 107292 = assay: as above; format: cell-based, A. baumannii; details: substance alone
Summary of the method: as §1

ABA UFR158 = assay: as above; format: cell-based, A. baumannii; details: substance alone
Summary of the method: as §1

ABA UFR157 = assay: as above; format: cell-based, A. baumannii; details: substance alone
Summary of the method: as §1

ABA UFR153 = assay: as above; format: cell-based, A. baumannii; details: substance alone
Summary of the method: as §1

ABA UFR151 = assay: as above; format: cell-based, A. baumannii; details: substance alone
Summary of the method: as §1

ABA UFR152 = assay: as above; format: cell-based, A. baumannii; details: substance alone
Summary of the method: as §1

ABA UFR154 = assay: as above; format: cell-based, A. baumannii; details: substance alone
Summary of the method: as §1

ABA UFR160 = assay: as above; format: cell-based, A. baumannii; details: substance alone
Summary of the method: as §1

ABA UFR155 = assay: as above; format: cell-based, A. baumannii; details: substance alone
Summary of the method: as §1

KPN UFR68 = assay: Fractional Inhibitory Concentration Index, checkerboard assay; format: cell-based, K. pneumoniae
Summary of the method: (§2)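 Two-agent checkerboards of 2-fold dilutions in ca-MHB were inoculated at 5.10^5 CFU/mL and incubated 18 h at 35 °C in air, in duplicate; fosfomycin wells also held 25 μg/ml glucose-6-phosphate. FICI calculated as the sum of combination/alone MIC ratios for each drug.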

ECO 190317 = assay: as above; format: cell-based, E. coli
Summary of the method: as §2

ECL P99 = assay: as above; format: cell-based, E. cloacae
Summary of the method: as §2

PAE UFR48 = assay: as above; format: cell-based, P. aeruginosa
Summary of the method: as §2

PAE UFR90 = assay: as above; format: cell-based, P. aeruginosa
Summary of the method: as §2

PAE 27853 = assay: MIC, broth microdilution (CLSI), substance alone or ATB combined with compound at 4 or 8 μg/mL; format: cell-based, P. aeruginosa; details: Pseudomonas aeruginosa, substance alone
Summary of the method: as §1

[1] = Acinetobacter baumannii, read-out: MIC

Row | MIC (ABA UFR159; [1]) [µg/mL] | MIC (ABA UFR156; [1]) [µg/mL] | MIC (ABA 107292; [1]) [µg/mL] | MIC (ABA UFR158; [1]) [µg/mL] | MIC (ABA UFR157; [1]) [µg/mL] | MIC (ABA UFR153; [1]) [µg/mL] | MIC (ABA UFR151; [1]) [µg/mL] | MIC (ABA UFR152; [1]) [µg/mL] | MIC (ABA UFR154; [1]) [µg/mL] | MIC (ABA UFR160; [1]) [µg/mL] | SMILES | FIC index min (KPN UFR68; compound +ATM) | FIC index min (KPN UFR68; compound +FEP) | FIC index min (KPN UFR68; compound +FOS) | FIC index min (KPN UFR68; compound +MEM) | FIC index min (KPN UFR68; compound +PIP) | FIC index min (ECO 190317; compound +ATM) | FIC index min (ECO 190317; compound +FEP) | FIC index min (ECO 190317; compound +FOS) | FIC index min (ECO 190317; compound +MEM) | FIC index min (ECO 190317; compound +PIP) | other results
1 | – | – | – | – | – | – | – | – | – | – | O=C(O)C(F)(F)F.O=C1N2C[C@H](c3scnc3[C@H]2c2ncc[nH]2)N1OS(=O)(=O)[O-].[Na+] (relative stereo) [Example 6, sodium and 2,2,2-trifluoroacetate [trans-7-(1H-imidazol-3-ium--2-yl)-9-oxo-3-thia-5,8,10-triaza-tricyclo[6.2.1.0^2,6]undeca-2(6),4-dien-10-yl]sulfate] | 1.0 | 1.0 | 0.28 | 0.50 | ≤0.5 | – | – | – | – | – | MIC (ABA UFR159): >32 µg/mL; MIC (ABA UFR156): 16 µg/mL; MIC (ABA 107292): >32 µg/mL; MIC (ABA UFR158): 16 µg/mL; MIC (ABA UFR157): 8 µg/mL; MIC (ABA UFR153): 16 µg/mL; MIC (ABA UFR151): 32 µg/mL; MIC (ABA UFR152): 32 µg/mL; MIC (ABA UFR154): 32 µg/mL; MIC (ABA UFR160): 16 µg/mL; MIC (ABA UFR155): 16 µg/mL
2 | > 32 | > 32 | > 32 | > 32 | > 32 | > 32 | > 32 | > 32 | > 32 | > 32 | O=C1N2CC(c3ncco3)=C[C@H](C2)N1OS(=O)(=O)[O-].[Na+] [Example 9, sodium [(5R)-3-(oxazol-2-yl)-7-oxo-1,6-diazabicyclo[3.2.1]oct-3-en-6-yl] sulfate] | ≤0.27 | ≤0.05 | 0.50 | 0.15 | ≤0.27 | 0.20 | ≤0.07 | 0.69 | 0.58 | ≤0.21 | MIC (ABA UFR155; [1]): > 32 µg/mL; FIC index min (ECL P99; compound +ATM): 0.53; FIC index min (ECL P99; compound +FEP): 0.23; FIC index min (ECL P99; compound +FOS): ≤0.19; FIC index min (ECL P99; compound +MEM): 0.88; FIC index min (ECL P99; compound +PIP): 0.20; FIC index min (PAE UFR48; compound +ATM): 0.14; FIC index min (PAE UFR48; compound +FEP): 0.50; FIC index min (PAE UFR48; compound +FOS): 1.0; FIC index min (PAE UFR48; compound +MEM): 0.8; FIC index min (PAE UFR48; compound +PIP): 0.32; FIC index min (PAE UFR90; compound +ATM): ≤0.30; FIC index min (PAE UFR90; compound +FEP): ≤0.27; FIC index min (PAE UFR90; compound +FOS): ≤0.52; FIC index min (PAE UFR90; compound +MEM): ≤0.53; FIC index min (PAE UFR90; compound +PIP): ≤0.23
3 | > 32 | > 32 | > 32 | > 32 | > 32 | > 32 | > 32 | > 32 | > 32 | > 32 | NCCON=C1C[C@@H](C(N)=O)N2C[C@@H]1N(OS(=O)(=O)[O-])C2=O.[Na+] [Example 2, sodium and 2,2,2-trifluoroacetate [(2S,5S)-4-(2-ammonium-ethoxyimino)-2-carbamoyl-7-oxo-1,6-diazabicyclo[3.2.1]octan-6-yl] sulfate] | 0.05 | ≤0.0098 | 0.25 | 0.03 | 0.09 | 0.08 | ≤0.06 | 0.56 | 0.50 | ≤0.25 | MIC (ABA UFR155; [1]): > 32 µg/mL; FIC index min (ECL P99; compound +ATM): 0.50; FIC index min (ECL P99; compound +FEP): 0.14; FIC index min (ECL P99; compound +FOS): ≤0.14; FIC index min (ECL P99; compound +MEM): 0.50; FIC index min (ECL P99; compound +PIP): 0.14; FIC index min (PAE UFR48; compound +ATM): 0.09; FIC index min (PAE UFR48; compound +FEP): 0.63; FIC index min (PAE UFR48; compound +FOS): 0.50; FIC index min (PAE UFR48; compound +MEM): 0.8; FIC index min (PAE UFR48; compound +PIP): 0.31; FIC index min (PAE UFR90; compound +ATM): ≤0.22; FIC index min (PAE UFR90; compound +FEP): ≤0.28; FIC index min (PAE UFR90; compound +FOS): ≤0.63; FIC index min (PAE UFR90; compound +MEM): ≤0.38; FIC index min (PAE UFR90; compound +PIP): ≤0.15
4 | – | – | – | – | – | – | – | – | – | – | NCC[C@H](O)C(=O)N[C@@H]1C[C@H](N)[C@@H](O[C@H]2O[C@H](CN)[C@@H](O)[C@H](O)[C@H]2O)[C@H](O)[C@H]1O[C@H]1O[C@H](CO)[C@@H](O)[C@H](N)[C@H]1O [AN, Amikacin, reference compound] | – | – | – | – | – | – | – | – | – | – | MIC (PAE 27853): 2 µg/mL

Row | SMILES | MIC (ABA UFR159; [1]) [µg/mL] | MIC (ABA UFR156; [1]) [µg/mL] | MIC (ABA 107292; [1]) [µg/mL] | MIC (ABA UFR158; [1]) [µg/mL] | MIC (ABA UFR157; [1]) [µg/mL] | MIC (ABA UFR153; [1]) [µg/mL] | MIC (ABA UFR151; [1]) [µg/mL] | MIC (ABA UFR152; [1]) [µg/mL] | MIC (ABA UFR154; [1]) [µg/mL] | MIC (ABA UFR160; [1]) [µg/mL] | FIC index min (KPN UFR68; compound +ATM) | FIC index min (KPN UFR68; compound +FEP) | FIC index min (KPN UFR68; compound +FOS) | FIC index min (KPN UFR68; compound +MEM) | FIC index min (KPN UFR68; compound +PIP) | FIC index min (ECO 190317; compound +ATM) | FIC index min (ECO 190317; compound +FEP) | FIC index min (ECO 190317; compound +FOS) | FIC index min (ECO 190317; compound +MEM) | FIC index min (ECO 190317; compound +PIP) | other results
5 | NC[C@H]1C=C(c2cnco2)[C@@H]2CN1C(=O)N2OS(=O)(=O)[O-].O=C(O)C(F)(F)F.[Na+] (relative stereo) [Example 1, sodium and 2,2,2-trifluoroacetate [trans-2-(azaniumylmethyl)-4-oxazol-5-yl-7-oxo-1,6-diazabicyclo[3.2.1]oct-3-en-6-yl] sulfate] | > 32 | > 32 | > 32 | > 32 | > 32 | > 32 | > 32 | > 32 | > 32 | > 32 | ≤0.023 | ≤0.0088 | ≤0.126 | ≤0.0098 | ≤0.012 | 0.51 | 0.49 | 0.37 | 0.63 | ≤0.38 | MIC (PAE 27853): 1 µg/mL; MIC (ABA UFR155; [1]): > 32 µg/mL; FIC index min (ECL P99; compound +ATM): 0.50; FIC index min (ECL P99; compound +FEP): 0.47; FIC index min (ECL P99; compound +FOS): ≤0.3125; FIC index min (ECL P99; compound +MEM): 0.56; FIC index min (ECL P99; compound +PIP): 0.50; FIC index min (PAE UFR48; compound +ATM): 0.25; FIC index min (PAE UFR48; compound +FEP): 0.53; FIC index min (PAE UFR48; compound +FOS): 0.62; FIC index min (PAE UFR48; compound +MEM): 0.27; FIC index min (PAE UFR48; compound +PIP): 0.27; FIC index min (PAE UFR90; compound +ATM): 0.54; FIC index min (PAE UFR90; compound +FEP): 0.50; FIC index min (PAE UFR90; compound +FOS): 1.0; FIC index min (PAE UFR90; compound +MEM): 0.75; FIC index min (PAE UFR90; compound +PIP): 0.88
